Data reported in patent US20240067603A1, “CUBANYL BIGUANIDE COMPOUNDS” (REGENTS OF THE UNIVERSITY OF MINNESOTA, priority 2020, published 2024).
Like-named read-outs stand apart in the source and are kept apart here.

How the values were obtained:
[1] = tested on: MDA-MB-231; assay: Inhibition of mammary carcinoma cell line MDA-MB-231; type: cell-based; conditions: Table 5; MDA-MB-231, human, Basal, HER2−
Experimental: (§1) 3-(4,5-Dimethylthiazol-2-yl)-2,5-diphenyltetrazolium Bromide (MTT) Cell Proliferation Assay. To cells grown in 96-well-tissue culture plate, 20 μl/well of MTT solution (5 mg/ml in PBS) was added. After 1-2 hours incubation at 37° C., the plate was centrifuged. Supernatant was discarded and 100 μl DMSO was added to dissolve water insoluble formazan, and the absorbance was read at 540 nm with a plate reader.

[2] = tested on: SARS-CoV-2; assay: SARS-CoV-2 antiviral assay in Vero cells; type: cell-based; conditions: Severe acute respiratory syndrome coronavirus 2, Vero cells, FIG. 11; for IC50: read-out: antiviral IC50; for IC90: read-out: antiviral IC90
[3] = in vitro; conditions: African green monkey, Vero E6 cells
[4] = tested on: MCF-7 cells; assay: MTT cell proliferation assay, MCF-7; type: cell-based, human; conditions: MCF7
Experimental: FIG. 8. Effects of HCB on the proliferation of MCF-7 cells. MCF-7 cells were seeded in 96 well plates and treated with drugs at varied concentration for 24 hours. MTT assay was performed to determine remaining viable cells in each well. Results are represented as mean±S.D. (n=7). IC50 was determined by curve fitting.
as §1

[5] = Microsomal stability, human liver microsomes; type: in vitro ADME; conditions: for parent metabolite peak area after 60 min: 10 μM, human liver microsomes 1 mg/mL, NADPH 2 mM, 37° C.; for degradation pathways: human or mouse liver microsomes
Experimental: Microsomal stability of HBB and HCB were evaluated in human and mouse liver microsomes. 10 μM of HBB or HCB was tested in a biological matrix comprising of human or mouse liver microsomes (1 mg/mL) (Table 6). NADPH (2mM) was added as a cofactor. Total volume was 200 μL.
HBB or HCB was incubated for 0, 30, or 60 min at 37° C. Incubations were quenched with 2 volumes of acetonitrile followed by centrifugation for 10 min at 16,000 g.

[6] = tested on: LR/FR MCF7A1C cells; assay: Crystal violet cell proliferation assay, LR,FR-MCF7AC1; type: cell-based, human; conditions: for IC50: Homo sapiens, read-out: IC50, LR/FR MCF7A1C cells
Experimental: Derivation process of LR-FR- and LR-FR-PR resistant MCF7AC1 cells. The letrozole-resistant MCF7AC1 cell line (LR-MCF7AC1) was generated in vivo from the aromatase-expressing MCF7A C1 tumor-bearing athymic female nude mice that received letrozole therapy (10 μg/day, five days a week) over a period of 27 weeks. To facilitate tumor growth mice also received the estrogen precursor androstenedione (100 μg/day, five days a week), which is intratumorally converted by aromatase into estradiol (Yue W, et al. Cancer Res. 1994; 54(19):5092-5). With the emergence of the letrozole resistant tumors, these tumors were harvested from in vivo and the LR-MCF7AC1 cell line was established in vitro (Jayaraman S., et al. Breast Cancer Res. 2020; 22(1):51), where the cells grew in phenol-red free IMEM+10% FBS media containing antibiotics.
In a second in vivo study, the LR-MCF7AC1 tumor-bearing athymic female nude mice were randomized to multiple endocrine therapies including fulvestrant therapy (1000 μg/day, five days a week). One mouse harboring the LR-MCF7AC1 tumor began to develop resistance to fulvestrant therapy at 31 weeks of treatment. This fulvestrant-resistant LR-MCF7AC1 tumor was harvested from mice and reimplanted into mice for two successive generations. The 2nd generation tumor was harvested from in vivo and the LR,FR-MCF7AC1 cell line was established in vitro, where the cells grew in phenol-red free IMEM+10% FBS media containing antibiotics.
Cell proliferation assay: The cells mentioned in this study were seeded in 96 wells-plates (2000-4000 cells/well) and treated 24 hours later with DMSO (vehicle control), HCB or HBB drugs at the indicated concentrations. 72 hours later, the cells were fixed in situ with 25% (v/v) glutaraldehyde, followed by staining with 0.52% crystal violet (CV) in 25% methanol (Fisher Chemical). The CV stained plates were solubilized in 100 mM sodium citrate in 50% ethanol solution and absorbance of the stain measured at 550 nm using a plate reader. Each data point represents mean±SD, obtained from six wells per treatment performed in biological triplicates. […]

[7] = tested on: SARS-CoV-2; assay: microbe, parasite or virus in culture; type: cell-based; conditions: Severe acute respiratory syndrome coronavirus 2, 293T/ACE2, FIG. 12; for IC50: read-out: antiviral IC50; for IC90: read-out: antiviral IC90
[8] = tested on: MCF10A cells; assay: Crystal violet cell proliferation assay, MCF10A; type: cell-based; conditions: Homo sapiens, MCF-10A, 72 hours
Experimental: Cell proliferation assay: The cells mentioned in this study were seeded in 96 wells-plates (2000-4000 cells/well) and treated 24 hours later with DMSO (vehicle control), HCB or HBB drugs at the indicated concentrations. 72 hours later, the cells were fixed in situ with 25% (v/v) glutaraldehyde, followed by staining with 0.52% crystal violet (CV) in 25% methanol (Fisher Chemical). The CV stained plates were solubilized in 100 mM sodium citrate in 50% ethanol solution and absorbance of the stain measured at 550 nm using a plate reader. Each data point represents mean±SD, obtained from six wells per treatment performed in biological triplicates. All reagents were from Sigma-Aldrich unless otherwise stated.

[9] = tested on: LR/FR/PR MCF7A1C cells; assay: Crystal violet cell proliferation assay, LR,FR,PR-MCF7AC1; type: cell-based; conditions: Homo sapiens, read-out: IC50, LR/FR/PR MCF7A1C cells
Experimental: Cell proliferation assay: The cells mentioned in this study were seeded in 96 wells-plates (2000-4000 cells/well) and treated 24 hours later with DMSO (vehicle control), HCB or HBB drugs at the indicated concentrations. […] The CV stained plates were solubilized in 100 mM sodium citrate in 50% ethanol solution and absorbance of the stain measured at 550 nm using a plate reader. Each data point represents mean±SD, obtained from six wells per treatment performed in biological triplicates.

[10] = tested on: Vero cells; assay: Cytotoxicity assay in Vero cells
[11] = tested on: mm001; assay: Inhibition of mammary carcinoma cell line mm001; type: cell-based, mouse (C57BL/6); conditions: Mus musculus, read-out: IC50 (uM), mm001
Experimental: as §1

[12] = tested on: 293T human embryonic kidney cells over-expressing the ACE2 receptor; assay: Cytotoxicity assay in 293T/ACE2 cells; conditions: 293T/ACE2 cytotoxicity
[13] = Cytotoxicity assay in 293T/ACE2 cells; conditions: human, HEK293T/17 cells expressing human ACE2
[14] = Table 5, MCF-7, human, ERα+, HER2−, read-out: IC50 (uM), MCF-7

Question: Which IC50 [1] does the source give for `CCCCCCNC(=N)NC(=N)NCC12C3C4C5C3C1C5C42` (stereo not shown) [HCB, Hexyl Cubanomethyl Biguanide] here?
Answer: 15.4 µM

Question: What about the IC50 [2] of the same molecule?
Answer: 15.6 µM

Question: What about the IC90 [2] of the same molecule?
Answer: 19.6 µM

Question: What about the CC50 at 48 h [3] of the same molecule?
Answer: 13.3 µM

Question: What about the IC50 ([4]; Homo sapiens, MTT, 24 hours treatment, curve fitting, read-out: IC50, proliferation of MCF-7 cells) of the same molecule?
Answer: 8.4 ± 1.2 µM

Question: What about the IC50 [4, 14] of the same molecule?
Answer: 8.4 µM

Question: What about the “parent metabolite peak area after 60 min” value [5] of the same molecule?
Answer: 48.18%

Question: And the degradation pathways [5]?
Answer: oxidation, dehydrogenation, and hydrogenation

Question: What about the IC50 ([6]; letrozole- and fulvestrant-resistant, 72 hours, crystal violet) of the same molecule?
Answer: 1.3 µM

Question: And the “fold increase in sensitivity, HCB vs HBB” value ([6]; LR/FR and LR/FR/PR MCF7A1C cells)?
Answer: ~3 fold

Question: What about the IC50 [7] of the same molecule?
Answer: 0.7 µM

Question: What about the IC90 [7] of the same molecule?
Answer: 4.8 µM

Question: What about the IC50 [8] of the same molecule?
Answer: 2.5 µM

Question: And the IC50 ([9]; letrozole-, fulvestrant- and palbociclib-resistant, 72 hours, crystal violet)?
Answer: 1.7 µM

Question: And the CC10 [10]?
Answer: 0.201 µM

Question: And the IC50 ([11]; Table 5, mm001, C57BL/6, Basal)?
Answer: 12.1 µM

Question: And the CC10 [12]?
Answer: 1.04 µM

Question: And the CC50 [13]?
Answer: 7.2 µM

Question: What does the source list for `CCCCCCNC(=N)NC(=N)NCc1ccccc1` [HBB, N1-hexyl-N5-benzyl-biguanide]?
Answer: IC50 [1]: 18.5 µM; IC50 [2]: > 20 µM; IC90 [2]: > 20 µM; CC50 at 48 h [3]: > 20 µM; IC50 [4, 14]: 22.2 µM; parent metabolite peak area after 60 min [5]: 19.19%; degradation pathways [5]: oxidation, dehydrogenation, and glucuronidation; IC50 ([6]; 72 h): 3.9 µM; IC50 [7]: 0.82 µM; IC90 [7]: 11.3 µM; IC50 [8]: 5.2 µM; IC50 ([9]; 72 h): 4.9 µM; CC10 [10]: 0.091 µM; IC50 [11]: 26.8 µM; CC10 [12]: 1.5 µM; CC50 [13]: 26 µM
